Experimental data published in US4898940A (priority 1989, dated 1990).
Converted amounts (≈) assume the structure as drawn.

Assays:
Pseudomonas aeruginosa = assay: MIC, serial agar dilution (nutrient agar); type: cell-based; settings: Pseudomonas aeruginosa A9930
Description: (§1) Nutrient agar (Eiken) was used for bacteria and Sabouraud dextrose agar (Difco) for fungi. The inoculum size was adjusted to 10^4 CFU/ml for bacteria and 10^5 -10^7 CFU/ml for fungi.

Klebsiella pneumoniae = assay: MIC, serial agar dilution (nutrient agar); type: cell-based; settings: Klebsiella pneumoniae D-11
Description: as §1

Morganella morganii = assay: MIC, serial agar dilution (nutrient agar); type: cell-based; settings: Morganella morganii A9553
Description: as §1

[1] = test system: Staphylococcus epidermidis; assay: MIC, serial agar dilution (nutrient agar); type: cell-based
Description: as §1

Bacillus subtilis = assay: MIC, serial agar dilution (nutrient agar); type: cell-based; settings: Bacillus subtilis PCI-219
Description: as §1

Serratia marcescens = assay: MIC, serial agar dilution (nutrient agar); type: cell-based; settings: Serratia marcescens A20222
Description: as §1

Enterobacter cloacae = assay: MIC, serial agar dilution (nutrient agar); type: cell-based; settings: Enterobacter cloacae A9659
Description: as §1

Staphylococcus aureus = assay: MIC, serial agar dilution (nutrient agar); type: cell-based
Description: as §1

Proteus mirabilis = assay: MIC, serial agar dilution (nutrient agar); type: cell-based; settings: Proteus mirabilis A9554
Description: as §1

Streptococcus faecalis = assay: MIC, serial agar dilution (nutrient agar); type: cell-based; settings: Streptococcus faecalis A9612
Description: as §1

Escherichia coli = assay: MIC, serial agar dilution (nutrient agar); type: cell-based; settings: Escherichia coli NIHJ
Description: as §1

Micrococcus luteus = assay: MIC, serial agar dilution (nutrient agar); type: cell-based; settings: Micrococcus luteus PCI-1001
Description: as §1

Proteus vulgaris = assay: MIC, serial agar dilution (nutrient agar); type: cell-based; settings: Proteus vulgaris A9436
Description: as §1

[2] = test system: gram-positive and gram-negative bacteria; assay: In vitro antibacterial activity; type: cell-based
Description: as §1

[3] = test system: pathogenic fungi such as Candida albicans, Cryptococcus neoformans, Aspergillus fumigatus, Trichlophyton mentagrophytes and Mucor spinosus; assay: In vitro antifungal activity; type: cell-based; settings: clinically important pathogenic fungi
Description: as §1

[4] = test system: Lymphocytic leukemia P388; assay: Antitumor activity against P388 leukemia in mice; type: in vivo, CDF1 and BDF1 mice; settings: for T/C % of MST: P388 leukemia; for antitumor activity against P388 leukemia (in words): ip
Method: (§2) Lymphocytic leukemia P388 (CDF1 and BDF1 mice) and lymphoid leukemia L1210 (BDF1 mice) were inoculated by intraperitoneal injection of 0.8 ml diluted ascitic fluid containing 10^6 and 10^5 cells per mouse, respectively. Melanotic melanoma B16 (BDF1 mice) were implanted 0.5 ml of a 10% tumor brei intraperitoneally. Test materials were dissolved in 0.9% saline containing 10% dimethyl sulfoxide and graded doses of them were administered to mice intraperitoneally 24 hours after tumor implantation. Either olivomycin (NSC 38270) or mitomycin C was comparatively tested as a reference compound in the experiments.
Values for percentage ratios of 125 and above indicate significant antitumor effect.

[5] = test system: Trichophyton mentagrophytes; assay: MIC, serial agar dilution (Sabouraud dextrose agar); type: cell-based
Description: as §1

Mucor spinosus = assay: as above; type: cell-based; settings: Mucor spinosus IFO 5317
Description: as §1

Aspergillus fumigatus = assay: as above; type: cell-based
Description: as §1

Cryptococcus neoformans = assay: as above; type: cell-based
Description: as §1

Petriellidium boydii = assay: as above; type: cell-based; settings: Petriellidium boydii IFO 8073
Description: as §1

Candida albicans = assay: as above; type: cell-based
Description: as §1

Aspergillus flavus = assay: as above; type: cell-based; settings: Aspergillus flavus FA 21436
Description: as §1

Blastomyces dermaditis = assay: as above; type: cell-based; settings: Blastomyces dermaditis IFO 8144
Description: as §1

Sporothrix schenckii = assay: as above; type: cell-based; settings: Sporothrix schenckii IFO 8158
Description: as §1

Fusarium moniliforme = assay: as above; type: cell-based; settings: Fusarium moniliforme A 2284
Description: as §1

Piricularia oryzae = type: cell-based; settings: Piricularia oryzae D 91; Sabouraud dextrose agar
Solubility in solvents = type: physicochemical
[6] = Acute toxicity, single intraperitoneal administration; settings: male ddY mice
lymphoid leukemia L1210 = assay: Antitumor activity against L1210 leukemia in mice; type: in vivo, BDF1 mice; settings: L1210 leukemia, BDF1 mice
Method: as §2

Melanotic melanoma B16 = assay: Antitumor activity against B16 melanoma in mice; type: in vivo, BDF1 mice; settings: B16 melanoma, BDF1 mice
Method: as §2

[7] = Staphylococcus epidermidis A22152
[8] = Staphylococcus epidermidis D153
[9] = 0.3 mg/kg/day ip, schedule 1 (once daily on days 1, 4 and 7)
[10] = 3 mg/kg/day ip, schedule 1 (once daily on days 1, 4 and 7)
[11] = treatment schedule 1 (once daily on days 1, 4 and 7)
[12] = Trichophyton mentagrophytes #4329
[13] = Trichophyton mentagrophytes D 155
[14] = Cryptococcus neoformans IAM 4514
[15] = 0.031 mg/kg/day ip, schedule 2 (once daily on days 1 through 9)
[16] = 0.063 mg/kg/day ip, schedule 2 (once daily on days 1 through 9)
[17] = 0.13 mg/kg/day ip, schedule 2 (once daily on days 1 through 9)
[18] = 0.25 mg/kg/day ip, schedule 2 (once daily on days 1 through 9)
[19] = 0.5 mg/kg/day ip, schedule 2 (once daily on days 1 through 9)
[20] = 1 mg/kg/day ip, schedule 2 (once daily on days 1 through 9)

## CCCCCC=CCCC=CC=CC(=O)NC(C(=O)NC1CC(O)CCNC(=O)C=CC(C)NC1=O)C(C)O (stereo not drawn) [BU-2867T B]
Pseudomonas aeruginosa
  MIC: > 50 µg/mL
Klebsiella pneumoniae
  MIC: > 50 µg/mL
Morganella morganii
  MIC: > 50 µg/mL
[1]; [7]
  MIC: 50 µg/mL (≈ 91.5 µM)
[1]; [8]
  MIC: 6.3 µg/mL (≈ 11.5 µM)
Bacillus subtilis
  MIC: 50 µg/mL (≈ 91.5 µM)
Serratia marcescens
  MIC: > 50 µg/mL
Enterobacter cloacae
  MIC: > 50 µg/mL
Staphylococcus aureus; Staphyloccus aureus Bx-1633
  MIC: 50 µg/mL (≈ 91.5 µM)
Staphylococcus aureus; Staphylococcus aureus 209P
  MIC: 25 µg/mL (≈ 45.7 µM)
Staphylococcus aureus; Staphylococcus aureus Smith
  MIC: 3.1 µg/mL (≈ 5.67 µM)
Proteus mirabilis
  MIC: > 50 µg/mL
Streptococcus faecalis
  MIC: > 50 µg/mL
Escherichia coli
  MIC: > 50 µg/mL
Micrococcus luteus
  MIC: 50 µg/mL (≈ 91.5 µM)
Proteus vulgaris
  MIC: > 50 µg/mL
[2]
  activity against some gram-positive bacteria (in words): moderate activity
[3]
  antifungal activity (in words): somewhat less active than component C
[4]; [9]
  T/C % of MST: 120%
[4]; 1 mg/kg/day ip, schedule 1 (once daily on days 1, 4 and 7)
  T/C % of MST: 140%
[4]; [10]
  T/C % of MST: 165%
[4]; [11]
  antitumor activity against P388 leukemia (in words): showed antitumor activity
[5]; [12]
  MIC: 12.5 µg/mL (≈ 22.9 µM)
[5]; [13]
  MIC: 12.5 µg/mL (≈ 22.9 µM)
Mucor spinosus
  MIC: 0.8 µg/mL (≈ 1.46 µM)
Aspergillus fumigatus; Aspergillus fumigatus IAM 2034
  MIC: 3.1 µg/mL (≈ 5.67 µM)
Aspergillus fumigatus; Aspergillus fumigatus IAM 2530
  MIC: 31 µg/mL (≈ 56.7 µM)
Cryptococcus neoformans; Cryptococcus neoformans D 49
  MIC: 25 µg/mL (≈ 45.7 µM)
Cryptococcus neoformans; [14]
  MIC: 25 µg/mL (≈ 45.7 µM)
Petriellidium boydii
  MIC: > 50 µg/mL
Candida albicans; Candida albicans A 9540
  MIC: 1.6 µg/mL (≈ 2.93 µM)
Candida albicans; Candida albicans IAM 4888
  MIC: 3.1 µg/mL (≈ 5.67 µM)
Aspergillus flavus
  MIC: 25 µg/mL (≈ 45.7 µM)
Blastomyces dermaditis
  MIC: 50 µg/mL (≈ 91.5 µM)
Sporothrix schenckii
  MIC: > 50 µg/mL
Fusarium moniliforme
  MIC: > 50 µg/mL
Piricularia oryzae
  MIC: > 50 µg/mL
Solubility in solvents
  solubility in chloroform, acetonitrile and ethyl acetate: slightly soluble
  solubility in methanol, ethanol, n-butanol and dimethyl sulfoxide: readily soluble
  solubility in n-hexane and water: practically insoluble

## CCCCCCCCCC=CC=CC(=O)NC(C(=O)NC1CC(O)CCNC(=O)C=CC(C)NC1=O)C(C)O (stereo not drawn) [BU-2867T C]
Pseudomonas aeruginosa
  MIC: > 50 µg/mL
Klebsiella pneumoniae
  MIC: > 50 µg/mL
Morganella morganii
  MIC: > 50 µg/mL
[1]; [7]
  MIC: > 50 µg/mL
[1]; [8]
  MIC: > 50 µg/mL
Bacillus subtilis
  MIC: > 50 µg/mL
Serratia marcescens
  MIC: > 50 µg/mL
Enterobacter cloacae
  MIC: > 50 µg/mL
Staphylococcus aureus; Staphyloccus aureus Bx-1633
  MIC: > 50 µg/mL
Staphylococcus aureus; Staphylococcus aureus 209P
  MIC: > 50 µg/mL
Staphylococcus aureus; Staphylococcus aureus Smith
  MIC: > 50 µg/mL
Proteus mirabilis
  MIC: > 50 µg/mL
Streptococcus faecalis
  MIC: > 50 µg/mL
Escherichia coli
  MIC: > 50 µg/mL
Micrococcus luteus
  MIC: > 50 µg/mL
Proteus vulgaris
  MIC: > 50 µg/mL
[2]; at 50 mcg/ml
  growth inhibition of gram-positive and gram-negative bacteria (in words): did not inhibit the growth
[3]
  antifungal activity (in words): potent antifungal activity
[4]; [15]
  T/C % of MST: 100%
[4]; [16]
  T/C % of MST: 123%
[4]; [17]
  T/C % of MST: 153%
[4]; [18]
  T/C % of MST: 159%
[4]; [9]
  T/C % of MST: 130%
[4]; [19]
  T/C % of MST: 175%
[4]; [20]
  T/C % of MST: 189%
[4]; 2 mg/kg/day ip, schedule 2 (once daily on days 1 through 9)
  T/C % of MST: 234%
[4]; [10]
  T/C % of MST: 155%
[4]; [11]
  antitumor activity against P388 leukemia (in words): showed antitumor activity
[4]; treatment schedule 2 (once daily on days 1 through 9)
  antitumor activity against P388 leukemia (in words): highly active
[5]; [12]
  MIC: 6.3 µg/mL (≈ 11.5 µM)
[5]; [13]
  MIC: 1.6 µg/mL (≈ 2.92 µM)
Mucor spinosus
  MIC: 0.2 µg/mL (≈ 0.364 µM)
Aspergillus fumigatus; Aspergillus fumigatus IAM 2034
  MIC: 0.8 µg/mL (≈ 1.46 µM)
Aspergillus fumigatus; Aspergillus fumigatus IAM 2530
  MIC: 0.8 µg/mL (≈ 1.46 µM)
Cryptococcus neoformans; Cryptococcus neoformans D 49
  MIC: 3.1 µg/mL (≈ 5.65 µM)
Cryptococcus neoformans; [14]
  MIC: 3.1 µg/mL (≈ 5.65 µM)
Petriellidium boydii
  MIC: 50 µg/mL (≈ 91.1 µM)
Candida albicans; Candida albicans A 9540
  MIC: 0.8 µg/mL (≈ 1.46 µM)
Candida albicans; Candida albicans IAM 4888
  MIC: 1.6 µg/mL (≈ 2.92 µM)
Aspergillus flavus
  MIC: 50 µg/mL (≈ 91.1 µM)
Blastomyces dermaditis
  MIC: > 50 µg/mL
Sporothrix schenckii
  MIC: > 50 µg/mL
Fusarium moniliforme
  MIC: > 50 µg/mL
Piricularia oryzae
  MIC: > 50 µg/mL
Solubility in solvents
  solubility in chloroform, acetonitrile and ethyl acetate: slightly soluble
  solubility in methanol, ethanol, n-butanol and dimethyl sulfoxide: readily soluble
  solubility in n-hexane and water: practically insoluble
[6]
  LD50: 25 mg/kg

## CO[C@@]12[C@H](COC(N)=O)C3=C(C(=O)C(C)=C(N)C3=O)N1C[C@@H]1N[C@@H]12 [Mitomycin C, reference compound]
[4]; [15]
  T/C % of MST: 115%
[4]; [16]
  T/C % of MST: 130%
[4]; [17]
  T/C % of MST: 150%
[4]; [18]
  T/C % of MST: 170%
[4]; [19]
  T/C % of MST: 240%
[4]; [20]
  T/C % of MST: 290%
Lymphoid leukemia L1210; 0.063 mg/kg/day ip
  T/C % of MST: 106%
Lymphoid leukemia L1210; 0.13 mg/kg/day ip
  T/C % of MST: 129%
Lymphoid leukemia L1210; 0.25 mg/kg/day ip
  T/C % of MST: 129%
Lymphoid leukemia L1210; 0.5 mg/kg/day ip
  T/C % of MST: 141%
Lymphoid leukemia L1210; 1 mg/kg/day ip
  T/C % of MST: 140%
Melanotic melanoma B16; 0.13 mg/kg/day ip
  T/C % of MST: 131%
Melanotic melanoma B16; 0.25 mg/kg/day ip
  T/C % of MST: 141%
Melanotic melanoma B16; 0.5 mg/kg/day ip
  T/C % of MST: 163%
Melanotic melanoma B16; 1 mg/kg/day ip
  T/C % of MST: 181%
Melanotic melanoma B16; 2 mg/kg/day ip
  T/C % of MST: 63%

## Olivomycin A [reference compound]
[4]; [9]
  T/C % of MST: 100%
